Earlier results, collected in patent US20030040489A1, “Process for producing l-arabinose, l-arabinose-containing enzymatically processed products, diet foods, diabetic diet foods and fruit or vegetable juices and process for producting the same” (priority 1999, published 2003).

Tested on: disaccharide-decomposing enzymes (maltase, sucrase, etc.)
Conditions: enzymes of duodenal and small intestinal mucosae

In the case of O=C[C@H](O)[C@@H](O)[C@@H](O)CO [L-arabinose], the “mode of inhibition of disaccharide-decomposing enzymes” value is given as “uncompetitively inhibits”.
